From US6852333B1, “Agents and methods for promoting production gains in animals” (The Horticulture and Food Research Institute of New Zealand …, priority 1999, dated 2005) come the findings set out here.

Experiment [1] can be described thus: Broiler chicken trial: weight and feed conversion ratio with SAC in feed (Experiment 7). The experiment is classed as in vivo, broiler chickens. From the text:
This work aimed to investigate the effectiveness of an antistress containing composition or a stress alleviating composition (conveniently referred to as “SAC”), ([…], vitamin C and long chain amino acid mix) versus a calorie adjusted control, in lowering the physiological responses to stress and promoting growth in an intensive production systems (broiler chickens). In addition, the effect of the SAC agent in combination with existing industry feed additives (Performance enhancers: antibiotics and indigestible carbohydrates (oligosaccharides) was investigated in broiler chickens.
432 day-old male broiler chicks were used in the experiment carried out over six weeks in a poultry research unit. Chicks were assigned at random to one of 12 groups: • Group 1—Control 32° C. (n=36) • Group 2—Control 28° C. (n=36) • Group 3—Experimental Formulation A 32° C. (n=36) • Group 4—Experimental Formulation A 28° C. (n=36) • Group 5—Experimental Formulation B 28° C. (n=36) • Group 6—Experimental Formulation C 28° C. (n=36) • Group 7—Performance Enhancer 32° C. (n=36) • Group 8—Performance Enhancer 28° C. (n=36) • Group 9—Oligosaccharide 32° C. (n=36) • Group 10—Oligosaccharide 28° C. (n=36) • Group 11—Experimental Formulation A+Performance Enhancer 32° C. (n=36) • Group 12—Experimental Formulation A+Oligosaccharide 32C (n=36)
Once selected, groups of 6 birds were housed per cage in heated brooders (i.e. One treatment group (36 birds) per 6 cages). Each group had access to pelleted feed (NRM New Zealand) in excess of requirements during the trial conforming to standard poultry use Ross broiler specification), and water was freely available. During the manufacturing of the feed the following treatments were included.
SAC Agent (2-methyl-1,2-di-3-pyridyl-1-propanone, vitamin C, valine, isoleucine and leucine mixture), mixed with a glucose-based polymer carrier (0.01 g drug to 1 g of carrier) before addition to the feed in the following doses. • Formulation A (per kg feed): • 0.01 g 2-methyl-1,2-di-3-pyridyl-1-propanone • 0.1 g Vitamin C • 5 mg Valine, isoleucine and leucine • Formulation B (per kg feed): • 0.005 g 2-methyl-1,2-di-3-pyridyl-1-propanone • 0.05 g Vitamin C • 0.5 mg Valine, isoleucine and leucine • Formulation C (per kg feed): • 0.001 g 2-methyl-1,2-di-3-pyridyl-1-propanone • 0.01 g Vitamin C • 0.1 mg Valine, isolcucine and leucine • Performance Enhancers: • (Avilamycin (Surmax): Elanco Animal Health, Indianapolis, USA) • Dose: <0.2 g/kg (antibiotic concentration of 0.1 (g/ml). • Mannan oligosaccharide—indigestible carbohydrate (Bio-Mos: Alltech, Inc.USA) • Dose: 1 g/kg
Daily feed intake was recorded for each group of birds, and all birds were weighed weekly.
Birds were either kept at optimum temperature levels (32° C.) or exposed to cold stress (28° C.) from day 1 until day 14 of the trial. After 14 days they were removed to larger raised horizontal cages where all groups were maintained at 21° C. The birds remained in these cages for the remainder of the trial after which time they were slaughtered. After slaughter, meat from 6 birds per group was analysed for fat composition.

Experiment [2] is described as follows: Growth rate of sheep given metyrapone with anthelmintic treatment (Experiments 3 and 6). The experiment is classed as in vivo. To be noted: no additional stresses; metyrapone 5 mg/kg at the time of anthelmintic treatment. An excerpt: In a first series of experiments, sheep were divided into pairs from initial twins. All the animals were grazed together, on the same paddocks, from pairing through to the end of the trial. They were thus exposed to the same potential parasite load and the same access to feed and water. The animals were also genetically similar (i.e at least one shared parent). Experiments were begun when the animal was 3 months of age. One half of the pairings were rounded up once a week and run through a race (control group). Any normal farm maintenance that was needed was done at this time, so that the time that animals may have been held was variable from week to week but consistent across the entire group and with the experimental group (see below). Faecal samples were also collected and both total egg and nematode egg counts calculated, and visual inspection for ectoparasites made. Animals were subject to the same anthelmintic treatments consisting of three pour-on (Ivomec pour on, MSD 1 ml per 50 kg), three oral (Endex, Novartis—1 ml per 5 kg) and three injectable treatments (levamisole. 7.5 mg/kg) per year (every four months). In a similar set of experiments to experiment 1, the animals in the chronic stress group also all received a chemical substance metyrapone (in an oral form at 5 mg/kg live weight) at the time of anthelmintic treatment. […]

The nature of experiment [3]: Stress relieving compounds given with anthelmintic, growth of ewes over 12 months (Experiment 13). In kind it is in vivo, sheep. To be noted: for effect on growth compared to control animals (FIG. 20): ewes treated every 2 months with anthelmintic plus agent; for effect on growth: alone or added to metyrapone. The procedure:
[…] A further 7 ewes received either astressin 0.0005 g or astressin and metyrapone (astressin at 0.0005 g and metyrapone at 0.001 g) and the vitamin C and amino acid mixture as above.
Bodyweight was measured monthly and animals were treated equivalently in all other aspects.

Another experiment relates to nematode. Kind of experiment: Anthelmintic efficacy (faecal egg / nematode counts) in stressed sheep given metyrapone (Experiments 3-5). In kind it is in vivo. An excerpt: In a first series of experiments, sheep were divided into pairs from initial twins. All the animals were grazed together, on the same paddocks, from pairing through to the end of the trial. They were thus exposed to the same potential parasite load and the same access to feed and water. The animals were also genetically similar (i.e at least one shared parent). Experiments were begun when the animal was 3 months of age. One half of the pairings were rounded up once a week and run through a race (control group). Any normal farm maintenance that was needed was done at this time, so that the time that animals may have been held was variable from week to week but consistent across the entire group and with the experimental group (see below). Faecal samples were also collected and both total egg and nematode egg counts calculated, and visual inspection for ectoparasites made. The other half of the pairings (chronic stress group) were exposed to the same handling […] (consistent with the single weekly procedure above) and in addition to this were run around a paddock by either a human or dog (alternating) for 10 minutes. In this manner a mild, chronic, handling stress was imposed on these animals. Races and handling facilities were cleaned between animal movements to avoid any risk of parasitic contamination. Animals were subject to the same anthelmintic treatments consisting of three pour-on (Ivomec pour on, MSD 1 ml per 50 kg), three oral (Endex, Novartis—1 ml per 5 kg) and three injectable treatments (levamisole. 7.5 mg/kg) per year (every four months). In a similar parallel experiment the control group was identical and the paired group to this control (acute stress) received identical treatment to the control group and in addition an acute stress one day prior to anthelmintic treatment. This consisted of chasing the group three times during the day with a dog for 15 min duration each time. The faecal egg count and ectoparasite assessment was the same in both groups at time of the first experimental anthelmintic treatment. […]

Experiment [4] is described as follows: Dose response of metyrapone, growth promotant effects in pigs (Experiment 9). In kind it is in vivo. To be noted: oral three times over six weeks. The procedure: (§1) In four different species (sheep, poultry, pigs and rats) different dosages of the compound metyrapone alone or in combination with vitamin C, isoleucine, leucine, valine were tested for growth promotant effects.
(§2) These mixtures were administered by oral routes three times over six weeks and a control group was administered a glucose mix at the same time (calorie equivalent). Animal growth in terms of liveweight gains were measured over periods of time, as was feed consumed.

Experiment [5] in a line: Dose response and dose composition, growth promotant effects (Experiment 9). As to conditions: oral three times over six weeks. The experiment is classed as in vivo, sheep, poultry, pigs and rats. On the procedure:
as §1, §2

Experiment [6] in a line: Reproductive success of ewes (Experiment 11). The experiment is classed as in vivo, sheep. As to conditions: over 3 seasons following original metyrapone treatments, vs control group. From the text: Female sheep (20 ewes) chosen from original experiments in experiments 4, 5 and 6 were studied for seasonal reproductive success for up to 3 seasons following the original metyrapone treatments. These animals received no further metyrapone treatments and were kept in a flock with a similar selected group of 20 control age and weight matched counterparts that had not received metyrapone treatment.
In a separate experiment using the different sheep with no previous exposure to treatments, 20 age and bodyweight matched ewes were run as a flock. Ten of these ewes received three treatments of metyrapone and vitamin C, isoleucine, leucine and valine at a dosage of 0.001 g metyrapone/0.01 g vitamin c, 0.0005 g each of valine, isoleucine and leucine per kg liveweight in an oral form without anthelmintics. These three treatments occurred one month prior to conception, in the first and third trimester of pregnancy. The remaining ten ewes received a similar handling and control administration of a glucose-amino acid mixture.

Another experiment has as its system faecal count (parasites). Kind of experiment: Increase of anthelmintic effect, monthly faecal count (Experiment 10). The experiment is classed as in vivo, sheep. As to conditions: anthelmintics and agents given every four months; faecal count each month. The procedure: In a further experiment similar to that described in experiments 3 and 4 the increased anthelmintic effect from vitamin C, isoleucine, valine and leucine alone or in combination with metyrapone, and metyrapone and pyrrolopyrimidine was tested. Anthelmintics and these agents were given every four months and faecal count calculated each month in between treatments.

[7] abbreviates: week 2, end of the cold stress period 28° C.
The mark [8] stands for this setting: week 3, after the stressor was removed (21° C.).
Where [9] appears, read: week 4, after the stressor was removed (21° C.).

Regarding `COC[C@H]1O[C@@H](OC2OC[C@@H]3O[C@]4(O[C@H]3[C@H]2OC(=O)C(C)C)O[C@H](C)[C@@](O)(C(C)=O)[C@@H]2OCO[C@H]24)[C@@H](OC)[C@@H](O)[C@@H]1O[C@@H]1O[C@H](C)[C@H](OC)[C@H](O[C@H]2C[C@@]3(C)OC4(C[C@@H](O)[C@H](O[C@H]5C[C@@H](O)[C@H](OC(=O)c6c(C)c(Cl)c(O)c(Cl)c6OC)[C@@H](C)O5)[C@@H](C)O4)O[C@@H]3[C@@H](C)O2)[C@H]1O` (stereo partly shown) [antibiotic performance enhancer, Avilamycin], the “rate of growth in comparison to birds given the SAC” value in experiment [1] (exposed to cold stress, during cold stress and afterwards) is “lower rate of growth”. Further, the “weight heavier than control birds” value in experiment [1] (week 1, cold stress 28° C.) was determined as 3.5 g; in experiment [1] (setting [7]), 6.3 g; in experiment [1] (setting [8]), 42.6 g; in experiment [1] (setting [9]), 35.2 g. In addition, the “weight heavier than control birds, percent” value was 2.0% in experiment [1] (week 1, cold stress 28° C.); 1.3% in experiment [1] (setting [7]); 4.5% in experiment [1] (setting [8]); 2.2% in experiment [1] (setting [9]).
Take `CC(C)(C(=O)c1cccnc1)c1cccnc1` [metyrapone, 2-methyl-1,2-di-3-pyridyl-1-propanone]: the “net gain, growth over the year (mean)” value in experiment [2] came to 18 kg. Further, the entries for the “Kg of Growth in 12 months” value in experiment [3] (0.0001 g/kg metyrapone) and in experiment [3] (0.0001 g/kg metyrapone + control) were 13 ± 3 kg and 14 ± 3 kg, respectively. The “effect on growth compared to control animals (FIG. 20)” value in experiment [3] is “larger effect”. Moreover, the “differences between acute stress and control groups” value in the experiment on nematode (acute stress group receiving metyrapone oral 5 mg/kg with anthelmintic) is “no differences were seen between the acute and control groups”. Further, in the experiment on nematode (chronic stress group, metyrapone oral 5 mg/kg live weight at the time of anthelmintic treatment), the “efficacy of anthelmintics compared with the non-stressed groups” value is “same efficacy of anthelmintics as the non-stressed groups”. In addition, the “time until nematode counts exceeded recommended number for dosing” value with nematode (one treatment including metyrapone, chronic and acute stressed animals vs control group) is given as “no differences to the control group”. Further, the “% gain in production with dose” value in experiment [4] was “a low and a high dose were effective however a mid-range dose did not produce the same gains”. Moreover, the “% gain in production with increase in dose” value in experiment [5] (all species except pigs) is reported as “an increase in gain was seen with an increase in dose of metyrapone levelling out”. Further, the “growth (liveweight gain)” value in experiment [5] (all species) was “increased growth”. Moreover, in experiment [6], the birthweight of lambs result was “slightly greater than seen in the control group”. Also, the “anthelmintic effectiveness (faecal count)” value in the experiment on faecal count (parasites) is recorded as “more effective than with the anthelmintic alone”.
`CC#C[C@]1(O)CC[C@H]2[C@@H]3CCC4=CC(=O)CCC4=C3[C@@H](c3ccc(N(C)C)cc3)C[C@@]21C` [mifepristone]: the “Kg of Growth in 12 months” value in experiment [3] (0.0001 g/kg mifepristone) was determined as 4 ± 4 kg; in experiment [3] (0.0005 g/kg mifepristone), 8 ± 2 kg. Besides, the “effect on growth compared to control animals (FIG. 20)” value in experiment [3] is recorded as “small positive effect”. The effect on growth entry in experiment [3] (mifepristone dose 0.0001 g/kg) is listed as “no effect compared to control”; in experiment [3] (mifepristone dose 0.0005 g/kg), “small increase in growth over control treatments”.
As to `CCCN(CCC)C(=O)C(CCC(=O)O)NC(=O)c1ccccc1` (stereo not shown) [proglumide], in experiment [3], the “effect on growth compared to control animals (FIG. 20)” value is listed as “small positive effect”.
As for astressin, the “Kg of Growth in 12 months” value in experiment [3] (0.0005 g/kg astressin) was found to be 10 ± 4 kg.
